Experimental data published in US11629135B2 (JUBILANT PRODEL LLC, priority 2017, dated 2023).

Key:
[1] = Metabolic stability in liver microsomes (rat); type: in vitro ADME; settings: rat liver microsomes 0.5 mg/mL, compound 1 μM, NADPH, up to 30 min
Experimental: (§1) Metabolic Stability in Liver Microsomes
(§2) Procedure: Potassium phosphate buffer (66.7 mM, pH 7.4) containing mouse or rat or dog or monkey or human liver microsomes (0.5 mg/mL) was pre-incubated separately with compound (1 μM) and positive control (verapamil, 1 μM) in a 37° C. water bath for 5 min. The reactions were initiated by adding 20 μL of 10 mM NADPH. Reactions without NADPH (0 and 30 min) were also incubated to rule out non-NADPH metabolism or chemical instability in the incubation buffer. All reactions were terminated using 200 μL of ice-cold acetonitrile containing internal standard at 0, 5, 15 and 30 min. The vials were centrifuged at 3000 rpm for 15 min. The reaction mixtures (obtained from the above studies) were extracted, processed and analyzed by LC-MS [Shimadzu SIL LC series (Kyoto, Japan) was coupled to an API-4000 Mass Spectrometer (MDS Sciex, Toronto, Canada)] to monitor the disappearance of compound.

[2] = Metabolic stability in liver microsomes (dog); type: in vitro ADME; settings: dog liver microsomes 0.5 mg/mL, compound 1 μM, NADPH, up to 30 min
Experimental: as §1, §2

[3] = test system: Caco-2 human intestinal epithelial cells; experiment: Caco-2 permeability; type: in vitro ADME; settings: 5 μM, bi-directional, 60 min
Experimental: Procedure: Caco-2 human intestinal epithelial cells were plated in 24-Transwell® dual chamber plates (Millipore, Billerica, Mass., USA) (cell density of 80,000 cells/cm^2 on day-1). The permeability studies were conducted with the monolayers cultured for 21 to 22 days in culture. The integrity of each Caco-2 cell monolayer was certified by trans epithelial electrical resistance (TEER) test (pre-experiment) and by determining the permeability of reference compound i.e., Lucifer yellow. Caco-2 cell monolayers with TEER values greater than 500 Ωcm^2 were considered for experimentation. Digoxin (5 μM) was used as a positive control for P-gp substrate. The concentrations of compound used in the assay was 5 μM. HBSS Buffer was used as the medium for the transport assay and the final concentration of DMSO in spiking solution was 0.05%. The bi-directional permeability study was initiated by adding an appropriate volume of HBSS buffer containing compound to respective apical and basolateral chambers (n=3). An aliquot of sample (100 μL) was taken from both chambers at 0 and 60 min of the incubation period and to this equal volume of acetonitrile was added, mixed gently and centrifuged at 4000 rpm for 10 min. An aliquot of 100 μL was subsequently transferred to the auto-sampler and 10 μL was injected for analysis on LC-MS/MS.

[4] = molecular target: T1, PD-1/PD-L1 interaction (Homo sapiens, UniProt Q9NZQ7); experiment: PD-1/PD-L1 Homogenous Time-Resolved Fluorescence (HTRF) binding assay; settings: Biochemical PD1/PD-L1 inhibition
T1 construct: Tag1 or Tag2 (undisclosed kit tag); purchased CisBio 63ADK000CPAPEG
T1 sequence (Q9NZQ7 19-238 limits assumed): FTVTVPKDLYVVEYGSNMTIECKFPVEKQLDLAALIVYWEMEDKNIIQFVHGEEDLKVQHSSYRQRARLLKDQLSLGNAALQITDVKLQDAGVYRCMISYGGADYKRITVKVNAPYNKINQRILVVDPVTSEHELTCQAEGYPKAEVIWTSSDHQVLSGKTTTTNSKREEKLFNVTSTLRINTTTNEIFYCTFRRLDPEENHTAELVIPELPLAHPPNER
Experimental: PD-L1 Enzyme Assay: Homogenous Time-Resolved Fluorescence (HTRF) Binding Assay
All binding studies were performed using PD-1/PD-L1 Binding Assay Kit from CisBio (Catalog #63ADK000CPAPEG), according to the manufacturer's protocol. The interaction between Tag1-PD-1 and […] was detected by anti-Tag1-Eu^3+ (HTRF donor) and anti-Tag2-XL665 (HTRF acceptor). When the donor and acceptor antibodies were brought to close proximity due to PD-1 and PD-L1 binding, excitation of the donor antibody triggered fluorescent resonance energy transfer (FRET) towards the acceptor antibody, which in turn emitted specifically at 665 nm. This specific signal is positively proportional to PD-1/PD-L1 interaction. The compounds blocking PD-1/PD-L1 interaction will cause a reduction in HTRF signal. The necessary reagents were mixed in the following order: 2 μl compounds (or diluents buffer), 4 μl PD-L1 protein, 4 μl PD-1 protein. After an incubation of 15 minutes, 5 μl of anti-Tag1-Eu^3+ and 5 μl of anti-Tag2-XL665 were added. The plate was sealed and incubated at RT for 1 h. The fluorescence emission was read at two different wavelengths (665 nm and 620 nm) on a BMG PheraStar® multiplate reader. Results were calculated from the 665 nm and 620 nm fluorescence signal and expressed in HTRF ratio=(665 nm/620 nm)×[…].

[5] = molecular target: T2, CYP2C19 (Homo sapiens, UniProt P33261); experiment: CYP inhibition in human liver microsomes (CYP2C19); type: in vitro ADME; settings: hydroxylation of omeprazole (CYP2C19 per method), read-out: predicted IC50, hydroxylation of omeprazole
T2 construct: assessed in human liver microsomes (procured from GIBCO Invitrogen); tissue GIBCO Invitrogen; host or cells: human liver microsomes
T2 sequence (P33261 whole entry): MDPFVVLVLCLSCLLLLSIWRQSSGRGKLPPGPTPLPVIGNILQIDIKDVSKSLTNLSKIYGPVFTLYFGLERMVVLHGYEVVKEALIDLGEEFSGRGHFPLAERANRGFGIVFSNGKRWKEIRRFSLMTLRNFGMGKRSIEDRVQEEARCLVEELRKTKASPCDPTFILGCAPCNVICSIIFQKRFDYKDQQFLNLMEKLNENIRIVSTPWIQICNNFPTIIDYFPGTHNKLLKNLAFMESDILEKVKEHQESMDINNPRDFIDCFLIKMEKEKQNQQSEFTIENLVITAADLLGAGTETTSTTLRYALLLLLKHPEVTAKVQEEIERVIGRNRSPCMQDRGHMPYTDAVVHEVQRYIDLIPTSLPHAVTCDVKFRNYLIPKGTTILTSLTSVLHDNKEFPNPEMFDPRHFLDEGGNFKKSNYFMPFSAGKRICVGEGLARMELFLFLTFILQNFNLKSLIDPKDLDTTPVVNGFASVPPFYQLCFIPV
Experimental: CYP inhibition potential of compound was assessed in human liver microsomes (procured from GIBCO Invitrogen) against CYP3A4, 2D6, 2C9, 2C19 and 1A2 in the following sequential steps. Standard reaction mixture (final volume 300 μL) contained […] potassium phosphate buffer (pH 7.4), protein (0.1, 0.25, 0.5, 0.5 and 0.5 mg/mL concentration for CYP3A4, 2D6, 2C9 2C19 and 1A2 respectively) and compound (at eight different concentration levels ranging from […], added as 0.9 μL DMSO solution with a final DMSO concentration of […]). The mixtures were pre-incubated at 37±1° C. for 5 min. The reaction (in duplicate) was initiated by addition of 30 μL of NADPH (10 mM). Reaction was terminated at 10 min by adding 300 μL of acetonitrile. The activity of liver microsomes was confirmed with positive controls i.e., monitoring the hydroxylation of midazolam for CYP 3A4, hydroxylation of bufuralol for CYP 2D6, hydroxylation of diclofenac for CYP 2C9, hydroxylation of omeprazole for CYP2C19 and O-Deethylation for CYP 1A2. The reaction mixtures (obtained from the above studies) were extracted, processed and analyzed by LC-MS [Shimadzu SIL LC series (Kyoto, Japan) was coupled to an API-4000 Mass Spectrometer (MDS Sciex, Toronto, Canada)].

- Metabolic stability in liver microsomes [1]: > 80%
- Metabolic stability in liver microsomes [2]: > 80%
- Caco-2 efflux [3]: high efflux
- Caco-2 permeability [3]: medium permeable
- IC50 [4]: < 0.1 µM
- IC50 [5]: > 10 µM
Compound: COc1nc(OCc2cccc(-c3ccccc3)c2C)nc(OC)c1CN1CCCC[C@H]1C(=O)O [Compound 45, (S)-1-((4,6-dimethoxy-2-((2-methyl-[1,1′-biphenyl]-3-yl)methoxy)pyrimidin-5-yl)methyl)piperidine-2-carboxylic acid]
